“And” between values parts separate entries of the source, which are not always exact repeats. Equal entries are not always repeated. Numbers after ± are expanded uncertainties.
Details: Liquid; for mass density: Vibrating tube method; for viscosity: Vibrating wire viscometry

**Q.** With OCCOCCO [diethylene glycol] as the molecule, how does the mass density (323.15 K, 19770 kPa) read?
**A.** 1103.6 ± 4.4 kg/m3

**Q.** What about the mass density (323.15 K, 24680 kPa) of the same molecule?
**A.** 1105.8 ± 4.4 kg/m3

**Q.** And the mass density (323.15 K, 29600 kPa)?
**A.** 1108 ± 4.5 kg/m3

**Q.** And the mass density (323.15 K, 34530 kPa)?
**A.** 1110.1 ± 4.5 kg/m3

**Q.** And the mass density (323.15 K, 39360 kPa)?
**A.** 1112.2 ± 4.5 kg/m3

**Q.** What about the mass density (323.15 K, 44290 kPa) of the same molecule?
**A.** 1114.3 ± 4.5 kg/m3

**Q.** And the mass density (323.15 K, 49260 kPa)?
**A.** 1116.3 ± 4.5 kg/m3

**Q.** And the mass density (323.15 K, 54100 kPa)?
**A.** 1118.2 ± 4.5 kg/m3

**Q.** What about the mass density (323.15 K, 59060 kPa) of the same molecule?
**A.** 1120.2 ± 4.5 kg/m3

**Q.** And the mass density (323.15 K, 63880 kPa)?
**A.** 1122 ± 4.5 kg/m3

**Q.** And the mass density (323.15 K, 68770 kPa)?
**A.** 1123.8 ± 4.5 kg/m3

**Q.** And the mass density (333.15 K, 100 kPa)?
**A.** 1087 ± 4.4 kg/m3

**Q.** What about the mass density (333.15 K, 660 kPa) of the same molecule?
**A.** 1087.3 ± 4.4 kg/m3

**Q.** What about the mass density (333.15 K, 1120 kPa) of the same molecule?
**A.** 1087.5 ± 4.4 kg/m3

**Q.** What about the mass density (333.15 K, 1630 kPa) of the same molecule?
**A.** 1087.8 ± 4.4 kg/m3

**Q.** What about the mass density (333.15 K, 2100 kPa) of the same molecule?
**A.** 1088 ± 4.4 kg/m3

**Q.** And the mass density (333.15 K, 3070 kPa)?
**A.** 1088.5 ± 4.4 kg/m3

**Q.** And the mass density (333.15 K, 5060 kPa)?
**A.** 1089.5 ± 4.4 kg/m3

**Q.** What about the mass density (333.15 K, 7050 kPa) of the same molecule?
**A.** 1090.5 ± 4.4 kg/m3

**Q.** And the mass density (333.15 K, 9930 kPa)?
**A.** 1091.9 ± 4.4 kg/m3

**Q.** And the mass density (333.15 K, 14780 kPa)?
**A.** 1094.3 ± 4.4 kg/m3

**Q.** And the mass density (333.15 K, 19770 kPa)?
**A.** 1096.7 ± 4.4 kg/m3

**Q.** What about the mass density (333.15 K, 24660 kPa) of the same molecule?
**A.** 1099 ± 4.4 kg/m3

**Q.** And the mass density (333.15 K, 29540 kPa)?
**A.** 1101.2 ± 4.4 kg/m3

**Q.** What about the mass density (333.15 K, 34500 kPa) of the same molecule?
**A.** 1103.4 ± 4.4 kg/m3

**Q.** And the mass density (333.15 K, 39330 kPa)?
**A.** 1105.5 ± 4.4 kg/m3

**Q.** And the mass density (333.15 K, 44230 kPa)?
**A.** 1107.6 ± 4.5 kg/m3

**Q.** And the mass density (333.15 K, 49130 kPa)?
**A.** 1109.7 ± 4.5 kg/m3

**Q.** And the mass density (333.15 K, 54060 kPa)?
**A.** 1111.7 ± 4.5 kg/m3

**Q.** What about the mass density (333.15 K, 59020 kPa) of the same molecule?
**A.** 1113.7 ± 4.5 kg/m3

**Q.** And the mass density (333.15 K, 63840 kPa)?
**A.** 1115.7 ± 4.5 kg/m3

**Q.** And the mass density (333.15 K, 68830 kPa)?
**A.** 1117.5 ± 4.5 kg/m3

**Q.** What about the viscosity (333.28 K, 210 kPa) of the same molecule?
**A.** 7.305 ± 0.32 mPa·s [middle of 6 runs]

**Q.** And the viscosity (333.28 K, 1080 kPa)?
**A.** 7.347 ± 0.3 mPa·s and 7.376 ± 0.3 mPa·s and 7.374 ± 0.3 mPa·s

**Q.** What about the viscosity (333.28 K, 2290 kPa) of the same molecule?
**A.** 7.397 ± 0.3 mPa·s [middle of 6 runs]

**Q.** What about the viscosity (333.28 K, 5100 kPa) of the same molecule?
**A.** 7.491 ± 0.3 mPa·s

**Q.** What about the viscosity (333.28 K, 5110 kPa) of the same molecule?
**A.** 7.506 ± 0.31 mPa·s and 7.492 ± 0.3 mPa·s

**Q.** And the viscosity (333.28 K, 5120 kPa)?
**A.** 7.53 ± 0.31 mPa·s and 7.547 ± 0.31 mPa·s

**Q.** What about the viscosity (333.28 K, 10340 kPa) of the same molecule?
**A.** 7.758 ± 0.32 mPa·s and 7.739 ± 0.32 mPa·s

**Q.** What about the viscosity (333.28 K, 10360 kPa) of the same molecule?
**A.** 7.749 ± 0.32 mPa·s and 7.734 ± 0.32 mPa·s

**Q.** And the viscosity (333.28 K, 19960 kPa)?
**A.** 8.178 ± 0.33 mPa·s [middle of 5 runs]

**Q.** What about the viscosity (333.28 K, 30150 kPa) of the same molecule?
**A.** 8.721 ± 0.35 mPa·s and 8.673 ± 0.35 mPa·s

**Q.** What about the viscosity (333.28 K, 30160 kPa) of the same molecule?
**A.** 8.678 ± 0.35 mPa·s and 8.671 ± 0.35 mPa·s

**Q.** What about the viscosity (333.28 K, 40000 kPa) of the same molecule?
**A.** 9.197 ± 0.38 mPa·s

**Q.** And the viscosity (333.28 K, 40010 kPa)?
**A.** 9.192 ± 0.38 mPa·s and 9.199 ± 0.38 mPa·s and 9.178 ± 0.37 mPa·s

**Q.** And the viscosity (333.28 K, 50250 kPa)?
**A.** 9.728 ± 0.4 mPa·s and 9.806 ± 0.4 mPa·s

**Q.** And the viscosity (333.28 K, 50260 kPa)?
**A.** 9.736 ± 0.4 mPa·s

**Q.** And the viscosity (333.28 K, 68880 kPa)?
**A.** 10.71 ± 0.51 mPa·s

**Q.** What about the viscosity (333.28 K, 69100 kPa) of the same molecule?
**A.** 10.77 ± 0.51 mPa·s

**Q.** What about the viscosity (333.28 K, 69180 kPa) of the same molecule?
**A.** 10.8 ± 0.51 mPa·s

**Q.** And the viscosity (342.75 K, 250 kPa)?
**A.** 5.567 ± 0.23 mPa·s and 5.585 ± 0.23 mPa·s and 5.609 ± 0.23 mPa·s

**Q.** And the viscosity (342.75 K, 260 kPa)?
**A.** 5.588 ± 0.23 mPa·s and 5.573 ± 0.23 mPa·s

**Q.** What about the viscosity (342.75 K, 1040 kPa) of the same molecule?
**A.** 5.634 ± 0.23 mPa·s [middle of 5 runs]

**Q.** What about the viscosity (342.75 K, 2130 kPa) of the same molecule?
**A.** 5.655 ± 0.23 mPa·s [middle of 5 runs]

**Q.** What about the viscosity (342.75 K, 5010 kPa) of the same molecule?
**A.** 5.77 ± 0.23 mPa·s

**Q.** What about the viscosity (342.75 K, 5020 kPa) of the same molecule?
**A.** 5.764 ± 0.23 mPa·s and 5.765 ± 0.23 mPa·s

**Q.** And the viscosity (342.75 K, 9990 kPa)?
**A.** 5.9 ± 0.24 mPa·s and 5.894 ± 0.24 mPa·s and 5.912 ± 0.24 mPa·s

**Q.** What about the viscosity (342.75 K, 10000 kPa) of the same molecule?
**A.** 5.925 ± 0.24 mPa·s

**Q.** What about the viscosity (342.75 K, 20270 kPa) of the same molecule?
**A.** 6.257 ± 0.25 mPa·s and 6.245 ± 0.25 mPa·s

**Q.** And the viscosity (342.75 K, 20280 kPa)?
**A.** 6.256 ± 0.25 mPa·s and 6.268 ± 0.25 mPa·s

**Q.** What about the viscosity (342.75 K, 30150 kPa) of the same molecule?
**A.** 6.641 ± 0.27 mPa·s [middle of 6 runs]

**Q.** What about the viscosity (342.75 K, 39690 kPa) of the same molecule?
**A.** 6.989 ± 0.28 mPa·s

**Q.** What about the viscosity (342.75 K, 39700 kPa) of the same molecule?
**A.** 6.991 ± 0.28 mPa·s

**Q.** And the viscosity (342.75 K, 39710 kPa)?
**A.** 6.946 ± 0.28 mPa·s and 6.939 ± 0.28 mPa·s and 6.957 ± 0.28 mPa·s

**Q.** What about the viscosity (342.75 K, 50090 kPa) of the same molecule?
**A.** 7.319 ± 0.3 mPa·s [middle of 6 runs]

**Q.** What about the viscosity (342.75 K, 70440 kPa) of the same molecule?
**A.** 8.133 ± 0.33 mPa·s

**Q.** And the viscosity (342.75 K, 70450 kPa)?
**A.** 8.148 ± 0.33 mPa·s

**Q.** And the viscosity (342.75 K, 70460 kPa)?
**A.** 8.145 ± 0.33 mPa·s

**Q.** And the viscosity (342.75 K, 70480 kPa)?
**A.** 8.152 ± 0.33 mPa·s

**Q.** What about the viscosity (342.75 K, 70500 kPa) of the same molecule?
**A.** 8.131 ± 0.33 mPa·s

**Q.** What about the viscosity (342.75 K, 70510 kPa) of the same molecule?
**A.** 8.177 ± 0.33 mPa·s

**Q.** And the mass density (343.15 K, 100 kPa)?
**A.** 1079.7 ± 4.3 kg/m3

**Q.** What about the mass density (343.15 K, 670 kPa) of the same molecule?
**A.** 1080 ± 4.3 kg/m3

**Q.** What about the mass density (343.15 K, 1100 kPa) of the same molecule?
**A.** 1080.2 ± 4.3 kg/m3

**Q.** And the mass density (343.15 K, 1520 kPa)?
**A.** 1080.4 ± 4.3 kg/m3

**Q.** And the mass density (343.15 K, 2120 kPa)?
**A.** 1080.7 ± 4.3 kg/m3

— the NIST ThermoML archive (doi:10.1016/j.fluid.2018.09.026)
